Where “and” joins values, the source holds several entries; their conditions need not be identical. Identical values can stand only once. Where a SMILES comes first, the peptide text is derived from it. [ ]: non-standard residue; d: D form. Hyp = O=C(O)[C@@H]1C[C@@H](O)CN1
Tested on: TNF-alpha
Assay: Example 9 Luminex, LPS hPBMCs: TNF-alpha
Type: cell-based, human
Experimental: Treatment Human PBMCs were pretreated with YY-101, YDE-011 and YDE-043 or reference compound; Xiidra® at various concentration (ranging from 1 nM to 100 uM) for 2 h before stimulation. An equal volume of 0.5% DMSO was used as a vehicle control. Then, the cells were treated with LPS at 5 ug/ml. The supernatants from treated cells were harvested at 24 h and placed in a 96 well for Luminex cytokine & chemokine profiling using a Luminex 200 multiplex assay (Luminex; R&D system, USA).
The main study arm with triplicate wells per group in a 24-well plate: • 1. Blank • 2. PBMC: 0.5% DMSO • 3. PBMC+LPS (5 ug/ml) • 4. PBMC+YY-101 100 uM • 5. PBMC+YY-101 10 uM • 6. PBMC+YY-101 1 uM • 7. PBMC+YY-101 0.1 uM • 8. PBMC+YY-101 0.01 uM • 9. PBMC+LPS (5 ug/ml)+Xiidra®100 uM • 10. PBMC+LPS (5 ug/ml)+Xiidra® 10 uM • 11. PBMC+LPS (5 ug/ml)+Xiidra® 1 uM • 12. PBMC+LPS (5 ug/ml)+Xiidra®0.1 uM • 13. PBMC+LPS (5 ug/ml)+Xiidra®0.01 uM • 14. PBMC+LPS (5 ug/ml)+Xiidra®0.001 uM • 15. PBMC+LPS (5 ug/ml)+YY-101 100 uM • 16. PBMC+LPS (5 ug/ml)+YY-101 10 uM • 17. PBMC+LPS (5 ug/ml)+YY-101 1 uM • 18. PBMC+LPS (5 ug/ml)+YY-101 0.1 uM • 19. PBMC+LPS (5 ug/ml)+YY-101 0.01 uM • 20. PBMC+LPS (5 ug/ml)+YY-101 0.001 uM • 21. PBMC+LPS (5 ug/ml)+YDE-011 100 uM • 22. PBMC+LPS (5 ug/ml)+YDE-011 10 uM • 23. PBMC+LPS (5 ug/ml)+YDE-011 1 uM • 24. PBMC+LPS (5 ug/ml)+YDE-011 0.1 uM • 25. PBMC+LPS (5 ug/ml)+YDE-011 0.01 uM • 26. PBMC+LPS (5 ug/ml)+YDE-011 0.001 uM • 27. PBMC+LPS (5 ug/ml)+YDE-043 100 uM • 28. PBMC+LPS (5 ug/ml)+YDE-043 10 uM • 29. PBMC+LPS (5 ug/ml)+YDE-043 1 uM • 30. PBMC+LPS (5 ug/ml)+YDE-043 0.1 uM • 31. PBMC+LPS (5 ug/ml)+YDE-043 0.01 uM • 32. PBMC+LPS (5 ug/ml)+YDE-043 0.001 uM
Multiplex assay was used to measure 30 cytokines and chemokines. The 1:2, 1:10 and 1:200 diluted cell supernatant and serial dilution of the standard were dispensed into a 96 well plate at 50 ul/well. Then, the pre-mixed cocktail of antibody-coated magnetic beads was dispensed at 50 ul/well and incubated at room temperature for 2 h in a horizontal orbital microplate shaker at 800±500 rpm. The beads were washed using a magnetic device to prevent loss. The biotin-antibody was dispensed in 50 ul of each well and incubated at room temperature for 1 h in a shaker at 800±500 rpm. After washing, streptavidin-PE was added at 50 ul/well and incubated at room temperature for 30 min in a shaker under the same conditions. Finally, after washing, wash buffer (100 ul/well) was added to the plate and incubated in a shaker for 2 min. The Luminex™ 200 setting were set according to the manufacturer's protocol. The data was calculated with a standard five-parameter logistic nonlinear regression analysis of the data (xPonent software 4.2, USA). The levels of cytokine/chemokine are normalized to the live cell counts (1×10^5 cells/mL) and presented as concentrations per mL (pg/mL or ng/mL).

[1] = PBMC + LPS(5 ug/ml) + test article 0.001 uM, Mean
[2] = PBMC + LPS(5 ug/ml) + test article 0.001 uM, individual replicates (1st, 2nd, 3rd)
[3] = PBMC + LPS(5 ug/ml) + test article 0.01 uM, Mean
[4] = PBMC + LPS(5 ug/ml) + test article 0.01 uM, individual replicates (1st, 2nd, 3rd)
[5] = PBMC + LPS(5 ug/ml) + test article 0.1 uM, Mean
[6] = PBMC + LPS(5 ug/ml) + test article 0.1 uM, individual replicates (1st, 2nd, 3rd)
[7] = PBMC + LPS(5 ug/ml) + test article 1 uM, Mean
[8] = PBMC + LPS(5 ug/ml) + test article 1 uM, individual replicates (1st, 2nd, 3rd)
[9] = PBMC + LPS(5 ug/ml) + test article 10 uM, Mean
[10] = PBMC + LPS(5 ug/ml) + test article 10 uM, individual replicates (1st, 2nd, 3rd)
[11] = PBMC + LPS(5 ug/ml) + test article 100 uM, Mean
[12] = PBMC + LPS(5 ug/ml) + test article 100 uM, individual replicates (1st, 2nd, 3rd)
[13] = PBMC + test article 0.01 uM, no LPS, Mean
[14] = PBMC + test article 0.01 uM, no LPS, individual replicates (1st, 2nd)
[15] = PBMC + test article 0.1 uM, no LPS, Mean
[16] = PBMC + test article 0.1 uM, no LPS, individual replicates (1st, 2nd)
[17] = PBMC + test article 1 uM, no LPS, Mean
[18] = PBMC + test article 1 uM, no LPS, individual replicates (1st, 2nd)
[19] = PBMC + test article 10 uM, no LPS, Mean
[20] = PBMC + test article 10 uM, no LPS, individual replicates (1st, 2nd)
[21] = PBMC + test article 100 uM, no LPS, Mean

CC(C)C[C@H](NC(=O)CNC(=O)[C@H](CC(=O)O)NC(=O)[C@H](CCC(N)=O)NC(=O)CNC(=O)[C@@H]1C[C@@H](O)CN1)C(=O)N[C@@H](C)C(=O)NCC(=O)N1CCC[C@H]1C(=O)N[C@@H](CCCCN)C(=O)O [YY-101] (H-[Hyp]GQDGLAGPK-OH; N-terminus and C-terminus assumed)
LPS-induced TNF-alpha (in words) (LPS 5 ug/mL 24 hrs, at as low as 1 nM): significantly reduced | TNF-alpha Concentration [1]: 2433.4 pg/mL | TNF-alpha conc/live cell [1]: 379.7 pg/10^5 | TNF-alpha Concentration [2]: 2537.1 pg/mL and 2609.2 pg/mL and 2154.0 pg/mL | TNF-alpha conc/live cell [2]: 445.1 pg/10^5 and 367.5 pg/10^5 and 326.4 pg/10^5 | TNF-alpha Concentration [3]: 2746.9 pg/mL | TNF-alpha conc/live cell [3]: 445.6 pg/10^5 | TNF-alpha Concentration [4]: 2819.6 pg/mL and 2784.2 pg/mL and 2636.8 pg/mL | TNF-alpha conc/live cell [4]: 440.6 pg/10^5 and 464.0 pg/10^5 and 432.3 pg/10^5 | TNF-alpha Concentration [5]: 2852.4 pg/mL | TNF-alpha conc/live cell [5]: 489.7 pg/10^5 | TNF-alpha Concentration [6]: 2791.9 pg/mL and 2870.4 pg/mL and 2895.0 pg/mL | TNF-alpha conc/live cell [6]: 450.3 pg/10^5 and 552.0 pg/10^5 and 466.9 pg/10^5 | TNF-alpha Concentration [7]: 2552.6 pg/mL | TNF-alpha conc/live cell [7]: 392.3 pg/10^5 | TNF-alpha Concentration [8]: 2738.1 pg/mL and 2506.5 pg/mL and 2413.2 pg/mL | TNF-alpha conc/live cell [8]: 434.6 pg/10^5 and 353.0 pg/10^5 and 389.2 pg/10^5 | TNF-alpha Concentration [9]: 2746.8 pg/mL | TNF-alpha conc/live cell [9]: 416.6 pg/10^5 | TNF-alpha Concentration [10]: 2741.2 pg/mL and 2807.3 pg/mL and 2692.0 pg/mL | TNF-alpha conc/live cell [10]: 456.9 pg/10^5 and 438.6 pg/10^5 and 354.2 pg/10^5 | TNF-alpha Concentration [11]: 2443.4 pg/mL | TNF-alpha conc/live cell [11]: 423.4 pg/10^5 | TNF-alpha Concentration [12]: 2569.3 pg/mL and 2318.5 pg/mL and 2442.3 pg/mL | TNF-alpha conc/live cell [12]: 407.8 pg/10^5 and 374.0 pg/10^5 and 488.5 pg/10^5 | TNF-alpha Concentration [13]: 28.1 pg/mL | TNF-alpha conc/live cell [13]: 5.6 pg/10^5 | TNF-alpha Concentration [14]: 26.8 pg/mL and 29.4 pg/mL | TNF-alpha conc/live cell [14]: 5.1 pg/10^5 and 6.1 pg/10^5 | TNF-alpha Concentration [15]: 29.4 pg/mL | TNF-alpha conc/live cell [15]: 5.8 pg/10^5 | TNF-alpha Concentration [16]: 26.8 pg/mL and 32.0 pg/mL | TNF-alpha conc/live cell [16]: 6.1 pg/10^5 and 5.5 pg/10^5 | TNF-alpha Concentration [17]: 33.3 pg/mL | TNF-alpha conc/live cell [17]: 6.1 pg/10^5 | TNF-alpha Concentration [18]: 32.0 pg/mL and 34.6 pg/mL | TNF-alpha conc/live cell [18]: 5.8 pg/10^5 and 6.3 pg/10^5 | TNF-alpha Concentration [19]: 61.4 pg/mL | TNF-alpha conc/live cell [19]: 9.7 pg/10^5 | TNF-alpha Concentration [20]: 90.9 pg/mL and 32.0 pg/mL | TNF-alpha conc/live cell [20]: 14.2 pg/10^5 and 5.2 pg/10^5 | TNF-alpha Concentration [21]: 72.7 pg/mL | TNF-alpha conc/live cell [21]: 11.0 pg/10^5 | TNF-alpha Concentration (PBMC + test article 100 uM, no LPS, individual replicates (1st, 2nd)): 95.0 pg/mL and 50.5 pg/mL

Source: US20230146455A1, “TREATMENT OF INFLAMMATORY DISEASES WITH PEPTIDES AND PHARMACEUTICAL COMPOSITIONS” (Yuyu Pharma, Inc., priority 2020, published 2023)
